The source of these data is patent publication US8815796B2, “Polyheterocyclic compounds highly potent as HCV inhibitors” (AB Pharma Ltd., priority 2010, dated 2014).

Where two headings read alike, the source gives them in different places.

In the experiment the target is T1, HCV NS3-4A protease (Hepatitis C virus genotype 1a, UniProt P27958).
T1 construct: HCV NS3-4A protease
As to the kind of experiment: HCV NS3-4A protease assay in vitro (FRET-S substrate). Format: biochemical. The procedure: HCV NS3-4A Protease Assay In Vitro.
The assay was conducted in Buffer A containing 30 mM NaCl, 5 mM CaCl2, 10 mM DTT, 50 mM Tris (pH7.8), using the Ac-Asp-Glu-Asp(EDANS)-Glu-Glu-Abu-ψ-[COO]-Ala-Ser-Lys (DABCYL)-NH2 (FRET-S) fluorescent peptide (AnaSpec, USA) as substrate. Briefly, 140 μL buffer A, 20 μL compounds dissolved in buffer A with different concentration and 20 μL HCV NS3-4A protease diluted in buffer A were added into 96-well plate respectively and mixed well. The reaction was initiate with adding 20 μL of FRET-S. Reactions were continuously monitored at 37° C. using a BMG Polarstar Galaxy (MTX Lab Systems, Inc. USA), with excitation and emission filters of 355 nm and 520 nm, respectively. The 50% inhibitory concentration (IC50) was calculated with Reed & Muench methods.

The mark [1] stands for this setting: HCV NS3-4A protease inhibition, 37° C., class symbols, read-out: NS3-NS4A IC50.

T1 sequence (P27958 1027-1657): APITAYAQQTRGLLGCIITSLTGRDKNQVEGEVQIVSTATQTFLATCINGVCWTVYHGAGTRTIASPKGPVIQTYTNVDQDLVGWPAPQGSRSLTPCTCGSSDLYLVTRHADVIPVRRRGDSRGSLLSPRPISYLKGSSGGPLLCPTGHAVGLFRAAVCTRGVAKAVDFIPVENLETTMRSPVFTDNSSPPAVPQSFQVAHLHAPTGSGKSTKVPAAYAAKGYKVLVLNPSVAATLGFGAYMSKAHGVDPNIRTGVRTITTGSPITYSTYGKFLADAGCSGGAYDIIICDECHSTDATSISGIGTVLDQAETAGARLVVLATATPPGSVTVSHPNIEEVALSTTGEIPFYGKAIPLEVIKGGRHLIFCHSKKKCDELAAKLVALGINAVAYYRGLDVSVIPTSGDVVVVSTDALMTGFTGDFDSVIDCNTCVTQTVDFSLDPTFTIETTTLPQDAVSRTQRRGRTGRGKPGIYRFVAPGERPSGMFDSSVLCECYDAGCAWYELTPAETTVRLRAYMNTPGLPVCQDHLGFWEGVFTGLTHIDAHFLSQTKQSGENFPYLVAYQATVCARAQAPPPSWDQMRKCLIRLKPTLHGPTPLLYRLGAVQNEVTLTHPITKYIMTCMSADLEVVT
T1 sequence (P27958 1658-1711): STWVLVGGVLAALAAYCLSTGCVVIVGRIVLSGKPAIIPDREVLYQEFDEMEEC

In general, IC50 refers to the concentration at which inhibition is half-maximal. As to `C=C[C@H]1C[C@@]1(NC(=O)C1C[C@@H](OC(=O)N2Cc3cccc(F)c3C2)CN1C(=O)[C@@H](NC(=O)OC(C)(C)C)C(C)(C)C)C(=O)NS(=O)(=O)C1CC1` (some centres unmarked) [Compound 30aj], under setting [1], the IC50 was less than 30 nM.

On to `CC(C)(C)OC(=O)N[C@H]1CCCCC/C=C\[C@@H]2C[C@@]2(C(=O)NS(=O)(=O)C2CC2)NC(=O)[C@@H]2C[C@@H](OC(=O)N3Cc4cc5c(cc4C3)OCO5)CN2C1=O` [Compound 12d], for which, under setting [1], the IC50 is less than 30 nM.

Consider `CC[C@H]1C[C@@]1(NC(=O)C1C[C@@H](OC(=O)N2Cc3cc4c(cc3C2)OCO4)CN1C(=O)[C@@H](NC(=O)OC(C)(C)C)C(C)(C)C)C(=O)NS(=O)(=O)C1CC1` (some centres unmarked) [Compound 30ag], for which the IC50 under setting [1] is less than 30 nM.

For the compound `CC[C@H]1C[C@@]1(NC(=O)C1C[C@@H](OC(=O)N2Cc3cc4c(cc3C2)OCO4)CN1C(=O)[C@@H](NC(=O)[C@@H](NC(=O)OCc1ccccc1)C1CCCCC1)C(C)(C)C)C(=O)NS(=O)(=O)C1CC1` (some centres unmarked) [Compound 30y], the IC50 is less than 30 nM.

Regarding `CC(C)(C)OC(=O)N([C@H]1CCCCC/C=C\[C@@H]2C[C@@]2(C(=O)NS(=O)(=O)C2CC2)NC(=O)[C@@H]2C[C@@H](OC(=O)N3Cc4ccc5c(c4C3)OCO5)CN2C1=O)S(C)(=O)=O` [Compound 12t], the IC50 under setting [1] was less than 30 nM.

On to `O=C1N[C@]2(C(=O)NS(=O)(=O)C3CC3)C[C@H]2/C=C\CCCCC[C@H](N2CCCS2(=O)=O)C(=O)N2C[C@H](OC(=O)N3Cc4cc5c(cc4C3)OCCO5)C[C@@H]12` [Compound 12j], for which the IC50 under setting [1] lay within 30 to 200 nM.

As for `O=C1N[C@]2(C(=O)NS(=O)(=O)C3CC3)C[C@H]2/C=C\CCCCCN(C2CC2)C(=O)C2C[C@H](OC(=O)N3Cc4ccc5c(c4C3)OCO5)C[C@@H]12` (some centres unmarked) [Compound 21d], the IC50 under setting [1] is 30 to 200 nM.

`CC[C@H]1C[C@@]1(NC(=O)C1C[C@@H](OC(=O)N2Cc3cc4c(cc3C2)OCO4)CN1C(=O)[C@@H](NC(=O)[C@@H](NC(=O)OCC1c2ccccc2-c2ccccc21)C1CCCCC1)C(C)(C)C)C(=O)NS(=O)(=O)C1CC1` (some centres unmarked) [Compound 30aa] returned an IC50 of less than 30 nM.

As to `O=C1N[C@]2(C(=O)NS(=O)(=O)C3CC3)C[C@H]2/C=C\CCCCC[C@H](Nc2ccccc2)C(=O)N2C[C@H](OC(=O)N3Cc4cc5c(cc4C3)OCO5)C[C@@H]12` [Compound 15a], the IC50 under setting [1] is less than 30 nM.

`C=C[C@H]1C[C@@]1(NC(=O)C1C[C@@H](OC(=O)N2Cc3cc4c(cc3C2)OCO4)CN1C(=O)[C@@H](NC(=O)[C@@H](NC(=O)NC(C)(C)C)C1CCCCC1)C(C)(C)C)C(=O)NS(=O)(=O)C1CC1` (some centres unmarked) [Compound 30ab] registered an IC50 of less than 30 nM.

For the compound `O=C1N[C@]2(C(=O)NS(=O)(=O)C3CC3)C[C@H]2/C=C\CCCCC[C@H](N2CCCS2(=O)=O)C(=O)N2C[C@H](OC(=O)N3Cc4cccc(F)c4C3)C[C@@H]12` [Compound 12m], under setting [1], the concentration for half-maximal inhibition (IC50) was 30 to 200 nM.

Consider `CC[C@H]1C[C@@]1(NC(=O)C1C[C@@H](OC(=O)N2Cc3cc4c(cc3C2)OCCCO4)CN1C(=O)[C@@H](NC(=O)[C@@H](NC(=O)OC1CCCC1)C1CCCCC1)C(C)(C)C)C(=O)NS(=O)(=O)C1CC1` (some centres unmarked) [Compound 30ae], for which the 50% inhibitory concentration (IC50) was 30 to 200 nM.

On to `CN1CCCCC/C=C\[C@@H]2C[C@@]2(C(=O)NS(=O)(=O)C2CC2)NC(=O)[C@@H]2CC(OC(=O)N3Cc4cc5c(cc4C3)OCCO5)CN2C1=O` (some centres unmarked) [Compound 27b], for which the IC50 under setting [1] was in the range of 30 to 200 nM.

`C=C[C@H]1C[C@@]1(NC(=O)C1C[C@@H](OC(=O)N2Cc3cc4c(cc3C2)OCO4)CN1C(=O)[C@@H](NC(=O)[C@@H](NC(=O)c1cnccn1)C1CCCCC1)C(C)(C)C)C(=O)NS(=O)(=O)C1CC1` (some centres unmarked) [Compound 30a] had an IC50 of less than 30 nM.

On to `CC(C)(C)OC(=O)N([C@H]1CCCCC/C=C\[C@@H]2C[C@@]2(C(=O)NS(=O)(=O)C2CC2)NC(=O)[C@@H]2C[C@@H](OC(=O)N3Cc4cccc(F)c4C3)CN2C1=O)S(C)(=O)=O` [Compound 12u], for which the IC50 under setting [1] was less than 30 nM.

With `CC(C)S(=O)(=O)NC(=O)[C@@]12C[C@H]1/C=C\CCCCC[C@H](NC(=O)OC(C)(C)C)C(=O)N1C[C@H](OC(=O)N3Cc4ccc5c(c4C3)OCCO5)C[C@H]1C(=O)N2` [Compound 12f], the IC50 under setting [1] was less than 30 nM.

For the compound `CN1CCCCC/C=C\[C@@H]2C[C@@]2(C(=O)NS(=O)(=O)C2CC2)NC(=O)[C@@H]2CC(OC(=O)N3Cc4cc5c(cc4C3)OCO5)CN2C1=O` (some centres unmarked) [Compound 27a], the IC50 under setting [1] is 30 to 200 nM.

As for `C=C[C@H]1C[C@@]1(NC(=O)C1C[C@@H](OC(=O)N2Cc3cc4c(cc3C2)OCO4)CN1C(=O)[C@@H](NC(=O)OC(C)(C)C)C(C)(C)C)C(=O)NS(=O)(=O)C1CC1` (some centres unmarked) [Compound 30af], the IC50 under setting [1] is less than 30 nM.

The compound `C=C[C@H]1C[C@@]1(NC(=O)C1C[C@@H](OC(=O)N2Cc3ccc4c(c3C2)OCCO4)CN1C(=O)[C@@H](NC(=O)[C@@H](NC(=O)c1cnccn1)C1CCCCC1)C(C)(C)C)C(=O)NS(=O)(=O)C1CC1` (some centres unmarked) [Compound 30d] displayed an IC50 of less than 30 nM.

On to `C=C[C@H]1C[C@@]1(NC(=O)C1C[C@@H](OC(=O)N2Cc3ccc4c(c3C2)OCO4)CN1C(=O)[C@@H](NC(=O)OC(C)(C)C)C(C)(C)C)C(=O)NS(=O)(=O)C1CC1` (some centres unmarked) [Compound 30ah], for which, under setting [1], the concentration for half-maximal inhibition (IC50) was less than 30 nM.

In turn, `CC[C@H]1C[C@@]1(NC(=O)C1C[C@@H](OC(=O)N2Cc3cc4c(cc3C2)OCO4)CN1C(=O)[C@@H](NC(=O)[C@@H](NC(=O)OC)C1CCCCC1)C(C)(C)C)C(=O)NS(=O)(=O)C1CC1` (some centres unmarked) [Compound 30x] displayed a concentration for half-maximal inhibition (IC50) of less than 30 nM.

On to `CC(C)(C)OC(=O)N[C@H]1CCCCC/C=C\[C@@H]2C[C@@]2(C(=O)O)NC(=O)[C@@H]2C[C@@H](OC(=O)N3Cc4ccc5c(c4C3)OCCO5)CN2C1=O` [Compound 11b], for which the IC50 under setting [1] was more than 200 nM.

For `CC[C@H]1C[C@@]1(NC(=O)C1C[C@@H](OC(=O)N2Cc3ccc4c(c3C2)OCCCO4)CN1C(=O)[C@@H](NC(=O)[C@@H](NC(=O)c1cnccn1)C1CCCCC1)C(C)(C)C)C(=O)NS(=O)(=O)C1CC1` (some centres unmarked) [Compound 30j], the IC50 is less than 30 nM.

As to `CC(C)(C)OC(=O)N[C@H]1CCCCC/C=C\[C@@H]2C[C@@]2(C(=O)O)NC(=O)[C@@H]2C[C@@H](OC(=O)N3Cc4cc5c(cc4C3)OCO5)CN2C1=O` [Compound 11d], under setting [1], the IC50 was more than 200 nM.

On to `CC[C@H]1C[C@@]1(NC(=O)C1C[C@@H](OC(=O)N2Cc3cc4c(cc3C2)OCO4)CN1C(=O)[C@@H](NC(=O)[C@@H](NS(=O)(=O)c1ccc2ccccc2c1)C1CCCCC1)C(C)(C)C)C(=O)NS(=O)(=O)C1CC1` (some centres unmarked) [Compound 30s], for which the IC50 under setting [1] is less than 30 nM.

For the compound `C=C[C@H]1C[C@@]1(NC(=O)C1C[C@@H](OC(=O)N2Cc3cc4c(cc3C2)OCCO4)CN1C(=O)[C@@H](NC(=O)[C@@H](NC(=O)c1cnccn1)C1CCCCC1)C(C)(C)C)C(=O)NS(=O)(=O)C1CC1` (some centres unmarked) [Compound 30c], the IC50 is less than 30 nM.

Consider `CCC[C@H](NC(=O)C1C[C@@H](OC(=O)N2Cc3ccc4c(c3C2)OCCO4)CN1C(=O)[C@@H](NC(=O)[C@@H](NC(=O)c1cnccn1)C1CCCCC1)C(C)(C)C)C(=O)C(=O)NC1CC1` (some centres unmarked) [Compound 33d], for which the IC50 was more than 200 nM.

`CC(C)(C)OC(=O)N[C@H]1CCCCC/C=C\[C@@H]2C[C@@]2(C(=O)NS(=O)(=O)C2CC2)NC(=O)[C@@H]2C[C@@H](OC(=O)N3Cc4cc5c(cc4C3)OCCO5)CN2C1=O` [Compound 12c]: under setting [1], the IC50 is less than 30 nM.

For `CC[C@H]1C[C@@]1(NC(=O)C1C[C@@H](OC(=O)N2Cc3cc4c(cc3C2)OCO4)CN1C(=O)[C@@H](NC(=O)[C@@H](NC(=O)OC(C)(C)C)C1CCCCC1)C(C)(C)C)C(=O)NS(=O)(=O)C1CC1` (some centres unmarked) [Compound 30m], the IC50 was less than 30 nM.
